Measured values published in patent US9172221B2, “Converter building” (ABB Technology AG, priority 2011, dated 2015).

Key:
[1] = toxicity / lethal concentration LC50
[2] = in vivo

Row | Structure (SMILES) | risk for human toxicity ([1]; concluded from available results of mammalian HFC (hydrofluorocarbon) tests) | toxicity (in words) [2] | LC50 ([1]; in vivo)
1 | FC(F)(F)COC(F)(F)F [2,2,2-trifluoroethyl-trifluoromethyl ether] | low risk for human toxicity | – | –
2 | O=C(C(F)(F)F)C(F)(C(F)(F)F)C(F)(F)F [C5-ketone, 1,1,1,3,4,4,4-heptafluoro-3-(trifluoromethyl)butan-2-one] | – | practically non-toxic | –
3 | O=C(C(F)(F)C(F)(F)F)C(F)(C(F)(F)F)C(F)(F)F [C6-ketone, 1,1,1,2,4,4,5,5,5-Nonafluoro-2-(trifluoromethyl)pentan-3-one] | – | non-toxic | about 100,000 ppm
